One test relates to PI3K α. Briefly: PI3K activity assay, cell-based ELISA of AKT (Ser 473) phosphorylation. As to conditions: Homo sapiens, Ovarian cell line A2780, 20% FCS stimulation. The method, then:
The assay was designed as in the reference, Biochemical Journal, 2000, 350, 717-722, the disclosure of which is incorporated by reference for the teaching of the assay.
Seed cells (Ovarian cell line A2780, ATCC) were plated in a 96 well microtitre plate at a density of 50,000 cells/cm^2 in appropriate complete cell culture medium. The cells were allowed to adhere for 18-24 hours. The cells were allowed to starve for 24 hours. The cells were pretreated (in triplicates) with the compounds of Example 1-40 (stock solution was prepared in DMSO and subsequent dilutions were made in kinase buffer) at a concentration of 10 μM for one hour. Then the cells were stimulated with 20% FCS for 30 minutes. A typical assay would consist of a set of unstimulated cells, a set of stimulated cells and a set of cells treated with compounds of Example 1-40 and a set of cells treated with the stimulator. The medium was discarded. The cells were fixed with 100 μL of 3.7% formaldehyde for 15 minutes. The formaldehyde was discarded by inverting the plate and tapping it on a thick tissue paper layer to remove traces. The cells were washed and permeabilized with 200 μL PBS+Triton-X 100 solution (hereafter referred to as PBS-Triton, containing 0.1% triton-X 100 in 1×PBS) three times, incubating the cells each time for 5 minutes. 100 μL blocking solution (10% FCS in PBS-Triton) was added and incubated for 1 hour at 25° C. The blocking solution was discarded and cells were incubated with the primary antibody in PBS-Triton at a dilution of 1:500 for 1 hour at RT (25° C.). [The primary antibody is Phospho-AKT (Ser 473); Cell Signaling; USA, Cat. No. 9271]. The primary antibody solution was discarded and the cells were washed 3 times with PBS-Triton solution and incubated with the HRP-conjugated secondary antibody in PBS-Triton at a dilution of 1:500 for 1 hour at RT (25° C.). The cells were washed 3 times with PBS-Triton followed by two washes with PBS (to remove traces of triton-X 100). The OPD (o-phenylene diamine dihydrochloride) substrate was prepared for detection of the signal by dissolving one tablet set (two tablets) of SigmaFast OPD (Sigma, USA, Cat No. P9187) in 20 mL distilled water. It should be kept protected from light. 100 μL OPD solutions was added to the wells and the plate was incubated in the dark for 3-5 minutes (depending upon the development of the color). The reaction was stopped by adding 50 μL 2 NH2SO4. The absorbance was measured at 490 nm. The values were expressed in the treated samples, in terms of percentage or fold decrease in AKT phosphorylation with respect to the induced sample. PI-103 (Calbiochem, USA) was used as a standard.
For orientation: In an ELISA, binding on a coated surface is turned into a signal by an enzyme label.

A further test has as its system TNF-α. Briefly: Human monocyte assay, LPS-stimulated TNF-α (ELISA). It counts as cell-based. As to conditions: human monocytes, 1 μg/ml LPS, 5 hours, read-out: TNFα (IC50). The method, then: The assay was designed as in the reference, Physiol. Res., 2003, 52, 593-598, the disclosure of which is incorporated by reference for the teaching of the assay.
Peripheral blood mononuclear cells (hPBMC) were harvested from human blood and suspended in RPMI 1640 culture medium containing 10% FCS, 100 U/mL penicillin and […] streptomycin (assay medium). Monocytes in the hPBMCs were counted using a Coulter Counter following which the cells were resuspended at 2×10^5 monocytes/mL. A cell suspension containing 2×10^4 monocytes was aliquoted per well of a 96-well plate. Subsequently, the hPBMCs were incubated for 4-5 hours at 37° C. under 5% CO2 (During the incubation, the monocytes adhered to the bottom of 96-well plastic culture plate). Following the incubation, the non-adherent lymphocytes were washed with assay medium and the adherent monocytes re-fed with assay medium. After a 48-hour incubation period (37° C., 5% CO2), monocytes were pretreated with various concentrations of compounds of Example 1-40 (prepared in DMSO) or vehicle (0.5% DMSO) for 30 minutes and stimulated with 1 μg/ml LPS (Escherchia coli 0111:B4, Sigma Chemical Co., St. Louis, Mo.). The incubation was continued for 5 hours at 37° C., 5% CO2. Supernatants were harvested, assayed for IL-6 and TNF-α by ELISA as described by the manufacturer (BD Biosciences, USA). Dexamethasone (10 μM) was used as standard for this assay. The 50% inhibitory concentration (IC50) values were calculated by a nonlinear regression method. In all experiments, a parallel plate was run to ascertain the toxicity of compounds of Example 1-40. The toxicity was determined using the MTS assay as described in Am. J. Physiol. Cell Physiol., 2003, 285, C813-C822.

The subject of test [1] is colorectal cancer (cell line HCT116) tumor model. Briefly: In vivo efficacy, HCT116 xenograft model in SCID mice. Particulars: 50 mpk oral, every day for 14 days. The protocol:
In-vivo efficacy of the compounds of the present invention was tested in colorectal cancer (cell line HCT116) tumor model Animals were housed and cared for in accordance with the Guidelines in force published by CPCSEA (Committee for the Purpose of Control and Supervision of Experiments on Animals), Tamil Nadu, India. Procedures using laboratory animals were approved by the IAEC (Institutional Animal Ethics Committee) of the Research Center of Piramal Life Sciences Limited, Mumbai, India.
Compound storage: All the compounds including standard were stored at 4-8° C. in an amber colored bottle. The compounds in solutions were also maintained at 4-8° C. in a refrigerator. Sample for animal injection was made fresh everyday.
Dose preparation: Required compound was weighed and mixed with 0.5% (w/v) carboxymethyl cellulose (CMC) and triturated with Tween-20 (secundum artum) with gradual addition of water to make up the final concentration.
Efficacy study in SCID mice: Severely Combined Immune-Deficient (SCID strain-CBySmn.CB17-Prkdc^scid/J, The Jackson Laboratory, Stock #001803) male mice weighing about 20 g of 6-9 weeks old were used in the study.
HCT116 cells were grown in McCoy's 5A medium containing 10% fetal calf serum in 5% CO2 incubator at 37° C. Cells were pelleted by centrifugation at 1000-rpm for 10 minutes. Cells were resuspended in sterile 1×PBS to get a count of 25×10^6 cells per mL, 0.2 mL of this cell suspension (corresponding to 5×10^6 cells) was injected by subcutaneous (s.c.) route in SCID mice. Mice were observed every alternate day for palpable tumor mass. Once the tumor size reached a size of 5-7 mm in diameter, animals were randomized into respective treatment groups. Dose was administered every day for 14 days. Tumor size was recorded on every second day.
Tumor weight (mg) was estimated according to the formula for a prolate ellipsoid: {Length (mm)×[width (mm)^2]×0.5}assuming specific gravity to be one and π to be three.
Tumor growth in compound treated animals was calculated as T/C (Treated/Control)×100% and Growth inhibition Percent (GI %) was [100−T/C %]. […]

The structures appear in SMILES notation. A value given as a limit tells only on which side of the number the result lay.

By inhibition is commonly meant the change of the read-out against control, counted positive when it falls. A high value points to a response far below the control. The IC50 is the concentration that gives 50% inhibition. Consider `C/C=C/C(=O)n1c(=O)n(-c2ccc(C(C)(C)C#N)cc2)c2c3cc(Cl)ccc3ncc21` [Example 38, (E)-2-(4-(3-But-2-enoyl-8-chloro-2-oxo-2,3-dihydro-1H-imidazo[4,5-c]quinolin-1-yl)phenyl)-2-methylpropanenitrile], for which the inhibition at 10 µM in the test with PI3K α is above 50%. Also, in the test with TNF-α, the IC50 is at most 1 µM. Also, in test [1], the “% growth inhibition on 14th day” value came out at 17%.

In the case of `CC(C)(C#N)c1ccc(-n2c(=O)n(C(=O)c3ccccc3)c3cnc4ccc(Cl)cc4c32)cc1` [Example 37, 2-(4-(3-Benzoyl-8-chloro-2-oxo-2,3-dihydro-1H-imidazo[4,5-c]quinolin-1-yl)phenyl)-2-methylpropanenitrile], the IC50 in the test with TNF-α was at most 1 µM.

Regarding `C/C=C/C(=O)n1c(=O)n(-c2ccc(C(C)(C)C#N)cc2)c2c3cc(Br)ccc3ncc21` [Example 27, (E)-2-(4-(8-Bromo-3-but-2-enoyl-2-oxo-2,3-dihydro-1H-imidazo[4,5-c]quinolin-1-yl)phenyl)-2-methylpropanenitrile], the inhibition at 10 µM in the test on PI3K α is above 50%. Besides, the IC50 in the test with TNF-α was at most 1 µM. Besides, the “% growth inhibition on 14th day” value in test [1] is on record as 36%.

In turn, `CC(C)(C#N)c1ccc(-n2c(=O)n(C(=O)c3ccccc3)c3cnc4ccc(Br)cc4c32)cc1` [Example 30, 2-(4-(3-Benzoyl-8-bromo-2-oxo-2,3-dihydro-1H-imidazo[4,5-c]quinolin-1-yl)phenyl)-2-methylpropanenitrile] yielded an inhibition at 10 µM in the test with PI3K α of 10 to 50%. The IC50 in the test on TNF-α was at most 1 µM. Moreover, the “% growth inhibition on 14th day” value in test [1] was found to be 35%.

In the test on PI3K α, `Cc1cccc(S(=O)(=O)n2c(=O)n(-c3ccc(C(C)(C)C#N)cc3)c3c4cc(Br)ccc4ncc32)c1` [Example 3, 2-(4-(8-Bromo-2-oxo-3-(m-tolylsulfonyl)-2,3-dihydro-1H-imidazo[4,5-c]quinolin-1-yl)phenyl)-2-methylpropanenitrile] displayed an inhibition at 10 µM of 10 to 50%.

(Values after patent US8637670B2, “Imidazo [4,5-C]quinoline derivatives and their use in the treatment of tumors and/or inflammation” (Piramal Enterprises Limited, priority 2009, dated 2014).)
